{"source": "paper PMC6277767", "about": "“Broad and Region-Specific Impacts of the Synthetic Cannabinoid CP 55,940 in Adolescent and Adult Female Mouse Brains” (Frontiers in Molecular Neuroscience, 2018)", "tested_on": "CD1 female mouse brain lipidome", "assay": "Brain-region lipid levels (HPLC/MS/MS lipidomics) 2 h after single i.p. 3 mg/kg CP 55,940 vs vehicle", "type": "in vivo", "design": "N-arachidonoyl phenylalanine level, Mean / N-stearoyl tryptophan level, Mean / N-stearoyl proline level, Mean / N-stearoyl leucine level, Mean / N-stearoyl phenylalanine level, Mean / N-stearoyl serine level, Mean / N-stearoyl methionine level, Mean: unit: moles per gram", "conditions": "hippocampus, adult, 3 mg/kg CP 55,940", "description": "The Bloomington Institutional Animal Care and Use Committee of Indiana University reviewed and approved the animal procedures. Female mice from the CD1 strain were utilized to match our study examining THC’s effects on the brain lipidome ([Leishman et al., 2018]). Mice were given a single i.p. injection of either 3 mg/kg CP or 1:1:18 cremophor:ethanol:saline vehicle (please refer to the section “3 mg/kg CP Is Relevant for Synthetic Cannabinoid Abuse and Has Stronger Effects on the Female Mouse Brain Lipidome During Adolescence” for a justification of dose and use of female mice). Three different age groups were given injections: PND 35 and PND 50 adolescents, and adult mice (PND 113). At least eight mice in each age group received CP and at least eight received vehicle. Matching the THC study time course ([Leishman et al., 2018]), mice were sacrificed via rapid decapitation 2 h after injection. Brains were immediately removed and flash-frozen in liquid nitrogen, and then stored at -80°C until dissections were performed. Brains were dissected on an ice-cold dissection plate into the following regions: STR, HIPP, CER, THAL, CTX, HYP, MID, and STEM. These abbreviations for these brain areas will be used exclusively when discussing the results generated by these specific dissections. Each dissected area was immediately placed in liquid nitrogen and then stored at -80°C until used for lipid extraction.\nTissue extracts were performed as previously described ([Bradshaw et al., 2006]; [Stuart et al., 2013]; [Raboune et al., 2014]; [Leishman et al., 2016a],[b], [2017], [2018]). First, samples were shock frozen in liquid nitrogen, weighed, and transferred to a centrifuge tube. The mass of the largest sample was multiplied by 50 to determine how many milliliters of HPLC-grade methanol (Fisher, Fair Lawn, NJ, United States) to add. Then, samples were spiked with 500 pmol deuterium-labeled NAGly (d8NAGly; Cayman Chemical, Ann Arbor, MI, United States). Samples were placed on ice in darkness for 2 h then individually homogenized and centrifuged at 19,000 × g for 20 min at 20°C. Supernatants were diluted with HPLC water (purified in house) to make a solution of 75% water, 25% supernatant. Lipids were partially purified on C18 solid phase extraction columns (Agilent, Palo Alto, CA, United States). A series of four elutions with 1.5 mL of 60%, 75%, 85%, and 100% methanol were collected ([Stuart et al., 2013]; [Leishman et al., 2016a],[b], [2018]).\nAs previously described ([Bradshaw et al., 2006]; [Tan et al., 2006]; [Smoum et al., 2010]; [Stuart et al., 2013]; [Tortoriello et al., 2013]; [Raboune et al., 2014]; [Leishman et al., 2016a],[b], [2017], [2018]), samples were analyzed using an Applied Biosystems API 3000 triple quadrupole mass spectrometer with electrospray ionization (Foster City, CA, United States). Using an Agilent XDB-C18 reversed phase analytical column and optimized mobile phase gradients, 20 μL from each elution were chromatographed. Two Shimadzu 10ADvp pumps (Columbia, MD, United States) provided the pressure for gradient elution. Mobile phase A: 20% methanol, 80% water (v/v) and 1 mM ammonium acetate (Sigma, St. Louis, MO, United States). Mobile phase B: 100% methanol, 1 mM ammonium acetate. Every method run began with 0% mobile phase B, reached 100% mobile phase B flowing at 0.2 mL/min, and gradually returned to 0% mobile phase B.\nThis screening library will be referred to as the lipidome when discussing data from this study. HPLC/MS/MS data were analyzed using Analyst software (Applied Biosystems) ([Bradshaw et al., 2006]; [Tan et al., 2006]; [Stuart et al., 2013]; [Tortoriello et al., 2013]; [Raboune et al., 2014]; [Leishman et al., 2016a],[b], [2017], [2018]). Chromatograms (Supplementary Figure 3) were generated by determining the retention time of analytes from the analytical column with a [M-1] or [M+1] parent peak and a fragmentation peak corresponding to the programmed values. […]"}
{"smiles": "CCCCCCC(C)(C)c1ccc([C@@H]2C[C@H](O)CC[C@H]2CCCO)c(O)c1", "note": "[CP 55,940]", "values": [{"measurement": "6-ketoPGF1α level, Mean", "value": "2.42E-11"}, {"measurement": "11-OH-THC level, Mean", "value": "BDL"}, {"measurement": "11-nor-9-carboxyTHC level, Mean", "value": "BDL"}, {"measurement": "Arachidonic acid level, Mean", "value": "1.89E-09"}, {"measurement": "Cannabidiol level, Mean", "value": "BDL"}, {"measurement": "Linoleic acid level, Mean", "value": "7.37E-10"}, {"measurement": "N- stearoyl valine level, Mean", "value": "3.95E-14"}, {"measurement": "N-arachidonoyl GABA level, Mean", "value": "2.86E-11"}, {"measurement": "N-arachidonoyl GABA: Direction (relative to Veh)", "value": "↓"}, {"measurement": "N-arachidonoyl GABA: Magnitude (x Veh level)", "value": 0.84, "unit": "x Veh level"}, {"measurement": "N-arachidonoyl alanine level, Mean", "value": "3.66E-12"}, {"measurement": "N-arachidonoyl alanine: Direction (relative to Veh)", "value": "↓"}, {"measurement": "N-arachidonoyl alanine: Magnitude (x Veh level)", "value": 0.76, "unit": "x Veh level"}, {"measurement": "N-arachidonoyl dopamine level, Mean", "value": "BDL"}, {"measurement": "N-arachidonoyl ethanolamine level, Mean", "value": "3.15E-11"}, {"measurement": "N-arachidonoyl glycine level, Mean", "value": "2.03E-12"}, {"measurement": "N-arachidonoyl glycine: Direction (relative to Veh)", "value": "↓"}, {"measurement": "N-arachidonoyl glycine: Magnitude (x Veh level)", "value": 0.72, "unit": "x Veh level"}, {"measurement": "N-arachidonoyl methionine level, Mean", "value": "PISSR"}, {"measurement": "N-arachidonoyl phenylalanine level, Mean", "value": "1.12E-13"}, {"measurement": "N-arachidonoyl phenylalanine: Direction (relative to Veh)", "value": "↓"}, {"measurement": "N-arachidonoyl phenylalanine: Magnitude (x Veh level)", "value": 0.60, "unit": "x Veh level"}, {"measurement": "N-arachidonoyl proline level, Mean", "value": "BDL"}, {"measurement": "N-arachidonoyl serine level, Mean", "value": "PISSR"}, {"measurement": "N-arachidonoyl taurine level, Mean", "value": "2.3E-10"}, {"measurement": "N-arachidonoyl tryptophan level, Mean", "value": "BDL"}, {"measurement": "N-arachidonoyl tyrosine level, Mean", "value": "PISSR"}, {"measurement": "N-docosahexaenoyl GABA level, Mean", "value": "7.15E-12"}, {"measurement": "N-docosahexaenoyl GABA: Direction (relative to Veh)", "value": "↓"}, {"measurement": "N-docosahexaenoyl GABA: Magnitude (x Veh level)", "value": 0.84, "unit": "x Veh level"}, {"measurement": "N-docosahexaenoyl alanine level, Mean", "value": "PISSR"}, {"measurement": "N-docosahexaenoyl ethanolamine level, Mean", "value": "2.18E-11"}, {"measurement": "N-docosahexaenoyl glycine level, Mean", "value": "1.21E-13"}, {"measurement": "N-docosahexaenoyl leucine level, Mean", "value": "PISSR"}, {"measurement": "N-docosahexaenoyl methionine level, Mean", "value": "BDL"}, {"measurement": "N-docosahexaenoyl phenylalanine level, Mean", "value": "PISSR"}, {"measurement": "N-docosahexaenoyl proline level, Mean", "value": "BDL"}, {"measurement": "N-docosahexaenoyl serine level, Mean", "value": "PISSR"}, {"measurement": "N-docosahexaenoyl tryptophan level, Mean", "value": "BDL"}, {"measurement": "N-docosahexaenoyl tyrosine level, Mean", "value": "PISSR"}, {"measurement": "N-docosahexaenoyl valine level, Mean", "value": "PISSR"}, {"measurement": "N-linoleoyl GABA level, Mean", "value": "PISSR"}, {"measurement": "N-linoleoyl alanine level, Mean", "value": "3.37E-13"}, {"measurement": "N-linoleoyl ethanolamine level, Mean", "value": "2.58E-11"}, {"measurement": "N-linoleoyl glycine level, Mean", "value": "1.16E-13"}, {"measurement": "N-linoleoyl leucine level, Mean", "value": "PISSR"}, {"measurement": "N-linoleoyl methionine level, Mean", "value": "BDL"}, {"measurement": "N-linoleoyl phenylalanine level, Mean", "value": "PISSR"}, {"measurement": "N-linoleoyl proline level, Mean", "value": "BDL"}, {"measurement": "N-linoleoyl serine level, Mean", "value": "7.17E-11"}, {"measurement": "N-linoleoyl tryptophan level, Mean", "value": "BDL"}, {"measurement": "N-linoleoyl tyrosine level, Mean", "value": "PISSR"}, {"measurement": "N-linoleoyl valine level, Mean", "value": "PISSR"}, {"measurement": "N-nervonoyl valine level, Mean", "value": "BDL"}, {"measurement": "N-oleoyl GABA level, Mean", "value": "1.55E-11"}, {"measurement": "N-oleoyl GABA: Direction (relative to Veh)", "value": "↓"}, {"measurement": "N-oleoyl GABA: Magnitude (x Veh level)", "value": 0.88, "unit": "x Veh level"}, {"measurement": "N-oleoyl alanine level, Mean", "value": "3.73E-12"}, {"measurement": "N-oleoyl dopamine level, Mean", "value": "BDL"}, {"measurement": "N-oleoyl ethanolamine level, Mean", "value": "1.06E-10"}, {"measurement": "N-oleoyl glycine level, Mean", "value": "5.21E-13"}, {"measurement": "N-oleoyl leucine level, Mean", "value": "1.44E-12"}, {"measurement": "N-oleoyl methionine level, Mean", "value": "PISSR"}, {"measurement": "N-oleoyl phenylalanine level, Mean", "value": "3.98E-13"}, {"measurement": "N-oleoyl phenylalanine: Direction (relative to Veh)", "value": "↓"}, {"measurement": "N-oleoyl phenylalanine: Magnitude (x Veh level)", "value": 0.70, "unit": "x Veh level"}, {"measurement": "N-oleoyl proline level, Mean", "value": "BDL"}, {"measurement": "N-oleoyl serine level, Mean", "value": "3.49E-10"}, {"measurement": "N-oleoyl tryptophan level, Mean", "value": "BDL"}, {"measurement": "N-oleoyl tyrosine level, Mean", "value": "4.1E-13"}, {"measurement": "N-oleoyl valine level, Mean", "value": "PISSR"}, {"measurement": "N-palmitoyl GABA level, Mean", "value": "2.14E-11"}, {"measurement": "N-palmitoyl alanine level, Mean", "value": "3.64E-12"}, {"measurement": "N-palmitoyl ethanolamine level, Mean", "value": "4.41E-11"}, {"measurement": "N-palmitoyl glycine level, Mean", "value": "1.22E-12"}, {"measurement": "N-palmitoyl leucine level, Mean", "value": "2.6E-12"}, {"measurement": "N-palmitoyl methionine level, Mean", "value": "1.73E-12"}, {"measurement": "N-palmitoyl phenylalanine level, Mean", "value": "4.39E-13"}, {"measurement": "N-palmitoyl proline level, Mean", "value": "BDL"}, {"measurement": "N-palmitoyl serine level, Mean", "value": "1.33E-11"}, {"measurement": "N-palmitoyl tryptophan level, Mean", "value": "BDL"}, {"measurement": "N-palmitoyl tyrosine level, Mean", "value": "9.98E-13"}, {"measurement": "N-palmitoyl valine level, Mean", "value": "1.27E-13"}, {"measurement": "N-stearoyl GABA level, Mean", "value": "1.57E-11"}, {"measurement": "N-stearoyl alanine level, Mean", "value": "2.38E-12"}, {"measurement": "N-stearoyl ethanolamine level, Mean", "value": "1.7E-11"}, {"measurement": "N-stearoyl glycine level, Mean", "value": "2.12E-12"}, {"measurement": "N-stearoyl leucine level, Mean", "value": "2.18E-12"}, {"measurement": "N-stearoyl phenylalanine level, Mean", "value": "3.31E-13"}, {"measurement": "N-stearoyl proline level, Mean", "value": "BDL"}, {"measurement": "N-stearoyl serine level, Mean", "value": "2.78E-11"}, {"measurement": "N-stearoyl serine: Direction (relative to Veh)", "value": "↓"}, {"measurement": "N-stearoyl serine: Magnitude (x Veh level)", "value": 0.85, "unit": "x Veh level"}, {"measurement": "N-stearoyl tryptophan level, Mean", "value": "BDL"}, {"measurement": "N-stearoyl tyrosine level, Mean", "value": "1.97E-13"}, {"measurement": "Oleic acid level, Mean", "value": "1.43E-09"}, {"measurement": "PGE2: Direction (relative to Veh)", "value": "↑"}, {"measurement": "PGE2: Magnitude (x Veh level)", "value": 1.18, "unit": "x Veh level"}, {"measurement": "PGE2 level, Mean", "value": "3.37E-10"}, {"measurement": "PGF2α: Direction (relative to Veh)", "value": "↑"}, {"measurement": "PGF2α: Magnitude (x Veh level)", "value": 1.30, "unit": "x Veh level"}, {"measurement": "PhosphoLEA level, Mean", "value": "1.8E-11"}]}
